#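 Test compounds were applied to cells in 96-well plates for 48 hours at 5 doses. Definition used: TGI = concentration required for complete inhibition of growth.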
# System: OVCAR-5 ovarian
# Assay: NCI anticancer screen, dose series, 48 h
row,Compound,TGI [µM]
1,Nc1nc(Cl)c(N)c(NC23CC4CC(CC(C4)C2)C3)n1,2.84

# System: OVCAR-8 ovarian
# Assay: NCI anticancer screen, dose series, 48 h
row,Compound,TGI [µM]
1,CCOC(=O)C1(Cc2ccc3c(c2)CCC3)Cc2cc3c(cc2C1)CCC3,> 100
2,C=CCNC1=C2C[C@@H](C)C[C@@H](OC)[C@H](OC(=O)CCCCN)[C@H](C)/C=C(\C)[C@@H](OC(N)=O)[C@H](OC)/C=C\C=C(/C)C(=O)NC(=CC1=O)C2=O,37.3
3,C[C@@H]1C[C@H]2[C@@H]3CCC4=CC(=O)C=C[C@]4(C)[C@@]3(Cl)[C@@H](Cl)C[C@]2(C)[C@@]1(O)C(=O)COP(=O)(O)O,> 100
4,O=Cc1cc2c(cc1-c1c(C=O)ccc3c1OCO3)OCO2,> 10
5,COC(=O)Cc1cc(O)c(C/C=C(\C)CC/C=C(\C)C(O)C(=O)C=C(C)C)cc1O (stereo not drawn),55.1
6,COc1ccc(/C=C(/C(=O)c2ccc(Cl)cc2)N2C=CC=CC2=C(C#N)C#N)cc1OC,16.1
7,Nc1nc(Cl)c(N)c(NC23CC4CC(CC(C4)C2)C3)n1,6.59

# System: PC-3 prostate
# Assay: NCI anticancer screen, dose series, 48 h
row,Compound,TGI [µM]
1,CCOC(=O)C1(Cc2ccc3c(c2)CCC3)Cc2cc3c(cc2C1)CCC3,> 100
2,C[C@@H]1C[C@H]2[C@@H]3CCC4=CC(=O)C=C[C@]4(C)[C@@]3(Cl)[C@@H](Cl)C[C@]2(C)[C@@]1(O)C(=O)COP(=O)(O)O,> 100
3,O=Cc1cc2c(cc1-c1c(C=O)ccc3c1OCO3)OCO2,> 10
4,COC(=O)Cc1cc(O)c(C/C=C(\C)CC/C=C(\C)C(O)C(=O)C=C(C)C)cc1O (stereo not drawn),87.7
5,COc1ccc(/C=C(/C(=O)c2ccc(Cl)cc2)N2C=CC=CC2=C(C#N)C#N)cc1OC,12.9
6,Nc1nc(Cl)c(N)c(NC23CC4CC(CC(C4)C2)C3)n1,2.97

# System: RPMI-8226 leukemia
# Assay: NCI anticancer screen, dose series, 48 h
row,Compound,TGI [µM]
1,CCOC(=O)C1(Cc2ccc3c(c2)CCC3)Cc2cc3c(cc2C1)CCC3,49.2
2,C=CCNC1=C2C[C@@H](C)C[C@@H](OC)[C@H](OC(=O)CCCCN)[C@H](C)/C=C(\C)[C@@H](OC(N)=O)[C@H](OC)/C=C\C=C(/C)C(=O)NC(=CC1=O)C2=O,35.1
3,C[C@@H]1C[C@H]2[C@@H]3CCC4=CC(=O)C=C[C@]4(C)[C@@]3(Cl)[C@@H](Cl)C[C@]2(C)[C@@]1(O)C(=O)COP(=O)(O)O,> 100
4,O=Cc1cc2c(cc1-c1c(C=O)ccc3c1OCO3)OCO2,> 10
5,COC(=O)Cc1cc(O)c(C/C=C(\C)CC/C=C(\C)C(O)C(=O)C=C(C)C)cc1O (stereo not drawn),69.6
6,COc1ccc(/C=C(/C(=O)c2ccc(Cl)cc2)N2C=CC=CC2=C(C#N)C#N)cc1OC,8.59
7,Nc1nc(Cl)c(N)c(NC23CC4CC(CC(C4)C2)C3)n1,5.02

# System: RXF 393 renal
# Assay: NCI anticancer screen, dose series, 48 h
row,Compound,TGI [µM]
1,C=CCNC1=C2C[C@@H](C)C[C@@H](OC)[C@H](OC(=O)CCCCN)[C@H](C)/C=C(\C)[C@@H](OC(N)=O)[C@H](OC)/C=C\C=C(/C)C(=O)NC(=CC1=O)C2=O,29.2
2,C[C@@H]1C[C@H]2[C@@H]3CCC4=CC(=O)C=C[C@]4(C)[C@@]3(Cl)[C@@H](Cl)C[C@]2(C)[C@@]1(O)C(=O)COP(=O)(O)O,> 100
3,COC(=O)Cc1cc(O)c(C/C=C(\C)CC/C=C(\C)C(O)C(=O)C=C(C)C)cc1O (stereo not drawn),30
4,COc1ccc(/C=C(/C(=O)c2ccc(Cl)cc2)N2C=CC=CC2=C(C#N)C#N)cc1OC,4.75
5,Nc1nc(Cl)c(N)c(NC23CC4CC(CC(C4)C2)C3)n1,3.24

# System: SF-268 CNS
# Assay: NCI anticancer screen, dose series, 48 h
row,Compound,TGI [µM]
1,CCOC(=O)C1(Cc2ccc3c(c2)CCC3)Cc2cc3c(cc2C1)CCC3,> 100
2,C=CCNC1=C2C[C@@H](C)C[C@@H](OC)[C@H](OC(=O)CCCCN)[C@H](C)/C=C(\C)[C@@H](OC(N)=O)[C@H](OC)/C=C\C=C(/C)C(=O)NC(=CC1=O)C2=O,32.8
3,C[C@@H]1C[C@H]2[C@@H]3CCC4=CC(=O)C=C[C@]4(C)[C@@]3(Cl)[C@@H](Cl)C[C@]2(C)[C@@]1(O)C(=O)COP(=O)(O)O,> 100
4,O=Cc1cc2c(cc1-c1c(C=O)ccc3c1OCO3)OCO2,> 10
5,COC(=O)Cc1cc(O)c(C/C=C(\C)CC/C=C(\C)C(O)C(=O)C=C(C)C)cc1O (stereo not drawn),40.6
6,COc1ccc(/C=C(/C(=O)c2ccc(Cl)cc2)N2C=CC=CC2=C(C#N)C#N)cc1OC,17.2
7,Nc1nc(Cl)c(N)c(NC23CC4CC(CC(C4)C2)C3)n1,> 20.5

# System: SF-295 CNS
# Assay: NCI anticancer screen, dose series, 48 h
row,Compound,TGI [µM]
1,CCOC(=O)C1(Cc2ccc3c(c2)CCC3)Cc2cc3c(cc2C1)CCC3,70.8
2,C=CCNC1=C2C[C@@H](C)C[C@@H](OC)[C@H](OC(=O)CCCCN)[C@H](C)/C=C(\C)[C@@H](OC(N)=O)[C@H](OC)/C=C\C=C(/C)C(=O)NC(=CC1=O)C2=O,29.9
3,C[C@@H]1C[C@H]2[C@@H]3CCC4=CC(=O)C=C[C@]4(C)[C@@]3(Cl)[C@@H](Cl)C[C@]2(C)[C@@]1(O)C(=O)COP(=O)(O)O,> 100
4,O=Cc1cc2c(cc1-c1c(C=O)ccc3c1OCO3)OCO2,> 10
5,COC(=O)Cc1cc(O)c(C/C=C(\C)CC/C=C(\C)C(O)C(=O)C=C(C)C)cc1O (stereo not drawn),55.1
6,COc1ccc(/C=C(/C(=O)c2ccc(Cl)cc2)N2C=CC=CC2=C(C#N)C#N)cc1OC,> 85.3
7,Nc1nc(Cl)c(N)c(NC23CC4CC(CC(C4)C2)C3)n1,11.3

# System: SF-539 CNS
# Assay: NCI anticancer screen, dose series, 48 h
row,Compound,TGI [µM]
1,CCOC(=O)C1(Cc2ccc3c(c2)CCC3)Cc2cc3c(cc2C1)CCC3,99.4
2,O=Cc1cc2c(cc1-c1c(C=O)ccc3c1OCO3)OCO2,> 10
3,COC(=O)Cc1cc(O)c(C/C=C(\C)CC/C=C(\C)C(O)C(=O)C=C(C)C)cc1O (stereo not drawn),40.5
4,COc1ccc(/C=C(/C(=O)c2ccc(Cl)cc2)N2C=CC=CC2=C(C#N)C#N)cc1OC,22.3
5,Nc1nc(Cl)c(N)c(NC23CC4CC(CC(C4)C2)C3)n1,3.72

# System: SK-MEL-2 melanoma
# Assay: NCI anticancer screen, dose series, 48 h
row,Compound,TGI [µM]
1,CCOC(=O)C1(Cc2ccc3c(c2)CCC3)Cc2cc3c(cc2C1)CCC3,> 100
2,C=CCNC1=C2C[C@@H](C)C[C@@H](OC)[C@H](OC(=O)CCCCN)[C@H](C)/C=C(\C)[C@@H](OC(N)=O)[C@H](OC)/C=C\C=C(/C)C(=O)NC(=CC1=O)C2=O,9.98
3,C[C@@H]1C[C@H]2[C@@H]3CCC4=CC(=O)C=C[C@]4(C)[C@@]3(Cl)[C@@H](Cl)C[C@]2(C)[C@@]1(O)C(=O)COP(=O)(O)O,> 100

# From PubChem BioAssay (NCI)
